In EPA's CvTdb concentration-time database:
Several values for one entry are separate records, joined by “and”; a condition that tells them apart may be missing. Equal entries are not always repeated.

What was measured:
[1] = test system: rat; assay: concentration in blood after dosing; negative times count back from the end of exposure; conditions: inhalation
[2] = test system: Rat; assay: concentration in brain after dosing; conditions: dosed: 2-Methyltetrahydrofuran, 40 mg/kg, iv, Harlan Sprague Dawley
[3] = test system: Rat; assay: concentration in plasma after dosing; conditions: dosed: 2-Methyltetrahydrofuran, 40 mg/kg, iv, Harlan Sprague Dawley

CCC(C)(C)OC [tertiary amyl methyl ether]
[1], dosed: tert-amyl methyl ether, duration: 6 hr, male, F344 (Charles River)
Conditions | concentration in blood
0.2936 h, 2500 ppm | 40100 ng/mL
0.2946 h, 2500 ppm | 38200 ng/mL
0.2952 h, 2500 ppm | 37100 ng/mL
0.4294 h, 100 ppm | 828 ng/mL
0.4521 h, 100 ppm | 1040 ng/mL
0.454 h, 100 ppm | 626 ng/mL
0.4709 h, 500 ppm | 5800 ng/mL
0.4728 h, 500 ppm | 4750 ng/mL
0.4735 h, 500 ppm | 4380 ng/mL
0.8269 h, 2500 ppm | 31500 ng/mL
0.8277 h, 2500 ppm | 30000 ng/mL
0.8285 h, 2500 ppm | 28500 ng/mL
0.8324 h, 2500 ppm | 20900 ng/mL
0.9984 h, 100 ppm | 528 ng/mL
0.9987 h, 100 ppm | 470 ng/mL
0.9992 h, 100 ppm | 366 ng/mL
1.018 h, 500 ppm | 3640 ng/mL and 3270 ng/mL
1.021 h, 500 ppm | 1850 ng/mL
1.733 h, 100 ppm | 268 ng/mL
1.755 h, 100 ppm | 523 ng/mL
1.756 h, 100 ppm | 418 ng/mL
1.756 h, 500 ppm | 1480 ng/mL
1.757 h, 500 ppm | 741 ng/mL
1.926 h, 2500 ppm | 12000 ng/mL
1.927 h, 2500 ppm | 9450 ng/mL
1.928 h, 2500 ppm | 6650 ng/mL
3.92 h, 2500 ppm | 4450 ng/mL
3.921 h, 2500 ppm | 2070 ng/mL
3.993 h, 500 ppm | 370 ng/mL
9.964 h, 500 ppm | 61.7 ng/mL
17.98 h, 2500 ppm | 42 ng/mL
176 s, 100 ppm | 1240 ng/mL
260 s, 100 ppm | 1350 ng/mL
269 s, 100 ppm | 782 ng/mL
284 s, 500 ppm | 10600 ng/mL
292 s, 500 ppm | 9510 ng/mL
299 s, 500 ppm | 8400 ng/mL
309 s, 500 ppm | 6910 ng/mL

[1], dosed: tert-amyl methyl ether, duration: 6 hr, male, F344 (Charles River), during exposure
Conditions | concentration in blood
-254 s, 2500 ppm | 82700 ng/mL
-248 s, 2500 ppm | 79200 ng/mL
-228 s, 500 ppm | 18600 ng/mL
-5.888 h, 2500 ppm | 24900 ng/mL
-5.887 h, 100 ppm | 1060 ng/mL
-5.887 h, 2500 ppm | 22400 ng/mL
-5.886 h, 2500 ppm | 20000 ng/mL
-5.884 h, 2500 ppm | 17200 ng/mL
-5.883 h, 2500 ppm | 14400 ng/mL
-5.878 h, 500 ppm | 2960 ng/mL
-5.864 h, 100 ppm | 1190 ng/mL
-5.863 h, 100 ppm | 1130 ng/mL
-5.858 h, 2500 ppm | 27500 ng/mL
-5.853 h, 500 ppm | 6980 ng/mL
-5.85 h, 500 ppm | 5560 ng/mL
-5.848 h, 500 ppm | 4010 ng/mL
-5.841 h, 100 ppm | 1460 ng/mL
-5.522 h, 2500 ppm | 37700 ng/mL
-5.521 h, 2500 ppm | 36200 ng/mL
-5.494 h, 2500 ppm | 44100 ng/mL
-5.492 h, 2500 ppm | 41100 ng/mL
-5.475 h, 500 ppm | 9570 ng/mL
-5.474 h, 500 ppm | 9200 ng/mL
-5.464 h, 100 ppm | 1660 ng/mL and 1610 ng/mL
-5.442 h, 100 ppm | 2030 ng/mL
-5.158 h, 2500 ppm | 56700 ng/mL
-5.157 h, 2500 ppm | 55100 ng/mL
-5.131 h, 2500 ppm | 64200 ng/mL
-5.129 h, 2500 ppm | 60300 ng/mL
-5.111 h, 100 ppm | 2080 ng/mL
-5.109 h, 100 ppm | 1560 ng/mL
-5.099 h, 500 ppm | 13500 ng/mL
-5.093 h, 500 ppm | 10600 ng/mL
-5.092 h, 100 ppm | 3060 ng/mL
-5.089 h, 100 ppm | 2490 ng/mL
-4.169 h, 100 ppm | 2960 ng/mL
-4.167 h, 100 ppm | 2490 ng/mL
-4.165 h, 100 ppm | 2180 ng/mL
-4.07 h, 100 ppm | 1980 ng/mL
-4.067 h, 2500 ppm | 51500 ng/mL
-4.046 h, 2500 ppm | 72000 ng/mL
-4.045 h, 2500 ppm | 69400 ng/mL
-4.044 h, 2500 ppm | 66600 ng/mL
-4.016 h, 500 ppm | 15000 ng/mL
-3.979 h, 500 ppm | 12000 ng/mL
-2.249 h, 2500 ppm | 85700 ng/mL
-2.248 h, 2500 ppm | 83400 ng/mL
-1.978 h, 500 ppm | 17800 ng/mL
-1.975 h, 500 ppm | 16400 ng/mL
-1.969 h, 100 ppm | 2860 ng/mL
-1.968 h, 100 ppm | 2600 ng/mL
-1.948 h, 100 ppm | 3320 ng/mL
-1.945 h, 100 ppm | 2760 ng/mL
-0.1231 h, 500 ppm | 16400 ng/mL
-0.1186 h, 500 ppm | 13900 ng/mL
-0.1052 h, 2500 ppm | 89600 ng/mL
-0.1033 h, 100 ppm | 3440 ng/mL
-0.1027 h, 100 ppm | 3320 ng/mL
-0.1027 h, 2500 ppm | 84600 ng/mL
-0.1008 h, 100 ppm | 2910 ng/mL

CC1CCCO1 (centres undefined) [2-Methyltetrahydrofuran]
Conditions | concentration in brain, [2] [ng/mL] | concentration in plasma, [3] [ng/mL]
0.2 h, Male | 24700 | 35000
0.5 h, Female | 15400 | 27200
0.5 h, Male | 13500 | 32200
0.75 h, Male | 22000 | 24000
1.5 h, Male | 9210 | 14000
2 h, Female | 5700 | 7560
2 h, Male | 9630 | 10700
2 min, Female | 41700 | 73300
2 min, Male | 32400 | 50000
4 h, Female | 73.6 | 101
4 h, Male | 356 | 977
6 h, Female | – | 13.3
6 h, Male | 21.5 | 8.93
7 min, Male | 29700 | 46500

ClC=C(Cl)Cl [trichloroethylene]
[1], dosed: trichloroethylene, duration: 4 hr
Conditions | concentration in blood [ng/mL]
-3.5 h, 600 ppm, female, F344, during exposure | 16800
-3.459 h, 600.4 ppm, female, F344, during exposure | 16200
-0.4732 h, 600.4 ppm, female, F344, during exposure | 29000
0.203 h, 50 ppm, male, Sprague Dawley | 936
0.2286 h, 50 ppm, male, Sprague Dawley | 807
0.2287 h, 50 ppm, male, Sprague Dawley | 1080
0.2341 h, 50 ppm, male, Sprague Dawley | 1130
0.2372 h, 600 ppm, female, F344 | 21800
0.2627 h, 600.4 ppm, female, F344 | 18800
0.4545 h, 50 ppm, male, Sprague Dawley | 1170
0.477 h, 50 ppm, male, Sprague Dawley | 624
0.4781 h, 50 ppm, male, Sprague Dawley | 461
0.4921 h, 50 ppm, male, Sprague Dawley | 758
0.4935 h, 600 ppm, female, F344 | 16100
0.5358 h, 600.4 ppm, female, F344 | 13400
0.9773 h, 600 ppm, female, F344 | 4980
0.9775 h, 50 ppm, male, Sprague Dawley | 548
0.9966 h, 50 ppm, male, Sprague Dawley | 412
1.025 h, 600.4 ppm, female, F344 | 8560
1.027 h, 50 ppm, male, Sprague Dawley | 319
1.739 h, 600 ppm, female, F344 | 2970
1.944 h, 50 ppm, male, Sprague Dawley | 181
1.987 h, 50 ppm, male, Sprague Dawley | 389
2.009 h, 50 ppm, male, Sprague Dawley | 301
2.054 h, 600.4 ppm, female, F344 | 3600
4.006 h, 50 ppm, male, Sprague Dawley | 217
4.049 h, 50 ppm, male, Sprague Dawley | 207
250 s, 600 ppm, female, F344 | 24700

[1], dosed: trichloroethylene, 50 ppm, duration: 4 hr, male, Sprague Dawley, during exposure
Conditions | concentration in blood [ng/mL]
-313 s | 1440
-72 s | 1050
-67 s | 1720
-14 s | 2070
-3.578 h | 917
-3.528 h | 611
-3.504 h | 680
-3.419 h | 998
-3.27 h | 824
-3.051 h | 1330
-3.011 h | 745
-3.008 h | 1370
-2.984 h | 1290
-2.064 h | 1650
-2.027 h | 1110
-2.007 h | 1380
-1.985 h | 1950
-1.07 h | 1850
-1.031 h | 1920
-1.023 h | 1010
-1.012 h | 1700
